Test results published in patent publication US5288709A, “Erythromycin derivatives” (priority 1991, dated 1994).
Values after ≈ are worked out from the molar mass of the structure shown. Read-outs that look alike come from different tables or passages of the source.

Legend:
Assay in all cases: In-vitro antimicrobial activity primary screen (agar dilution MIC)
Assay type in all cases: cell-based
[1] = system: Pseudomonas aeruginosa A5007; details: Pseudomonas aeruginosa, A5007, 24 h
Method in brief: (§1)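 Growth inhibition was scored on Brain Heart Infusion agar after 20-24 h incubation at 35-37° C; the MIC is the lowest tested concentration yielding no growth, a slight haze or sparsely isolated colonies on the inoculum spot.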

[2] = system: Streptococcus pyrogenes EES61; details: BHI agar, 20-24 h, read-out: MIC
Method in brief: as §1

Escherichia coli SS = details: BHI agar, 20-24 h, read-out: MIC
Method in brief: as §1

Acinetobacter SP CMX 669 = details: Acinetobacter, SPCMX669, 24 h
Method in brief: as §1

[3] = system: Staphylococcus aureus 45 RAR2; details: Staphylococcus aureus, 45RAR2, 24 h, BHI agar, 20-24 h
Method in brief: as §1

[4] = system: Pseudomonas aeruginosa K799/61; details: Pseudomonas aeruginosa K799/61; BHI agar, 20-24 h; read-out: MIC
Method in brief: as §1

[5] = system: Klebsiella pneumoniae ATCC 8045; details: Klebsiella pneumoniae, ATCC8045, 24 h
Method in brief: as §1

[6] = system: Pseudomonas aeruginosa BMH10; details: Pseudomonas aeruginosa, BMH10, 24 h, BHI agar, 20-24 h
Method in brief: as §1

Pseudomonas cepacia 2961 = details: Burkholderia cepacia, 2961, 24 h, BHI agar, 20-24 h
Method in brief: as §1

[7] = system: Staphylococcus aureus NCTC 10649; details: NCTC10649, BHI agar, 20-24 h, read-out: MIC
Method in brief: as §1

[8] = system: Staphylococcus aureus ATCC 6538P; details: Staphylococcus aureus, ATCC6538P, 24 h, BHI agar, 20-24 h
Method in brief: as §1

[9] = system: Micrococcus luteus ATCC 9341; details: Micrococcus luteus, ATCC9341, 24 h, BHI agar, 20-24 h
Method in brief: as §1

[10] = system: Streptococcus pyrogenes 2548 INDUC; details: BHI agar, 20-24 h, read-out: MIC
Method in brief: as §1

[11] = system: Streptococcus bovis A5169; details: Streptococcus equinus, BHI agar, 20-24 h
Method in brief: as §1

Staphylococcus aureus 45 = details: BHI agar, 20-24 h, read-out: MIC
Method in brief: as §1

Escherichia coli DC-2 = details: DC2; Escherichia coli DC-2; BHI agar, 20-24 h; read-out: MIC
Method in brief: as §1

[12] = system: Micrococcus luteus ATCC 4698; details: 20-24 h
Method in brief: as §1

[13] = system: Enterobacter aerogenes ATCC 13048; details: Klebsiella aerogenes, Enterobacter aerogenes ATCC 13048, BHI agar, 20-24 h
Method in brief: as §1

[14] = system: Providencia stuartii CMX 640; details: Providencia stuartii, CMX640, 24 h
Method in brief: as §1

[15] = system: Staphylococcus epidermidis 3519; details: BHI agar, 20-24 h, read-out: MIC
Method in brief: as §1

[16] = system: Staphylococcus aureus 642A; details: BHI agar, 20-24 h, read-out: MIC
Method in brief: as §1

[17] = system: Staphylococcus aureus A5177; details: Staphylococcus aureus, A5177, 24 h, Staphylococcus aureus A5177; BHI agar, 20-24 h
Method in brief: as §1

Escherichia coli JUHL = details: Escherichia coli JUHL; BHI agar, 20-24 h; read-out: MIC
Method in brief: as §1

[18] = system: Streptococcus agalactiae CMX 508; details: CMX508, BHI agar, 20-24 h, read-out: MIC
Method in brief: as §1

Escherichia coli H560 = details: Escherichia coli H560; BHI agar, 20-24 h; read-out: MIC
Method in brief: as §1

[19] = system: Enterococcus faecium ATCC 8043; details: ATCC8043; Enterococcus faecium ATCC 8043; BHI agar, 20-24 h; read-out: MIC
Method in brief: as §1

[20] = system: Pseudomonas aeruginosa K799/WT; details: Pseudomonas aeruginosa, K799/WT, 24 h
Method in brief: as §1

[21] = system: Staphylococcus aureus CMX 553; details: Staphylococcus aureus, CMX553, 24 h, BHI agar, 20-24 h, read-out: MIC
Method in brief: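 MIC is read as the lowest compound level yielding no growth, slight haze or sparse colonies on the inoculum spot, relative to a drug-free plate. Strains were replicator-inoculated (1:100 dilution) onto BHI agar plates holding twelve dilutions and held at 35-37 °C for 20-24 h, with erythromycin A as comparator.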

Row | Compound | MIC [1] [µg/mL] | MIC [2] [µg/mL] | MIC (Escherichia coli SS) [µg/mL] | MIC (Acinetobacter SP CMX 669) [µg/mL] | MIC [3] [µg/mL] | MIC [4] [µg/mL] | MIC [5] [µg/mL] | MIC [6] [µg/mL] | MIC (Pseudomonas cepacia 2961) [µg/mL] | MIC [7] [µg/mL] | MIC [8] [µg/mL] | MIC [9] [µg/mL] | MIC [10] [µg/mL] | MIC (Staphylococcus aureus 45) [µg/mL] | MIC (Escherichia coli DC-2) [µg/mL] | MIC [14] [µg/mL] | MIC [15] [µg/mL] | MIC [16] [µg/mL] | MIC [17] [µg/mL] | MIC (Escherichia coli JUHL) [µg/mL] | other results
1 | CC[C@H]1OC(=O)[C@H](C)[C@@H](O[C@H]2C[C@@](C)(OC)[C@H](N)[C@H](C)O2)[C@H](C)[C@@H](O[C@@H]2O[C@H](C)C[C@H](N(C)C)[C@H]2O)[C@](C)(O)C[C@@H](C)[C@@H]2O[C@@]1(C)[C@@H](N)[C@H]2C [Example 20, (4"R,9S,11S)-4",11-Diamino-9-deoxo-4",11,12-trideoxy-9,12-epoxyerythromycinA] | > 100 | ≤ 0.005 | 0.05 (≈ 0.0698 µM) | 1.56 (≈ 2.18 µM) | 0.39 (≈ 0.545 µM) | 0.78 (≈ 1.09 µM) | 1.56 (≈ 2.18 µM) | 25 (≈ 34.9 µM) | > 100 | 0.39 (≈ 0.545 µM) | 0.2 (≈ 0.279 µM) | 0.02 (≈ 0.0279 µM) | 0.78 (≈ 1.09 µM) | 0.2 (≈ 0.279 µM) | 3.1 (≈ 4.33 µM) | > 100 | 0.2 (≈ 0.279 µM) | 0.39 (≈ 0.545 µM) | 0.78 (≈ 1.09 µM) | 3.1 (≈ 4.33 µM) | MIC ([11]; A5169, 24 h): ≤ 0.005 µg/mL; MIC ([12]; Micrococcus luteus, ATCC4698, 24 h, BHI agar): 0.1 µg/mL (≈ 0.14 µM); MIC ([13]; ATCC13048, read-out: MIC): 12.5 µg/mL (≈ 17.5 µM); MIC [18]: 0.02 µg/mL (≈ 0.0279 µM); MIC (Escherichia coli H560): 1.56 µg/mL (≈ 2.18 µM); MIC [19]: 0.05 µg/mL (≈ 0.0698 µM); MIC ([20]; Pseudomonas aeruginosa K799/WT, BHI agar, 20-24 h): 50 µg/mL (≈ 69.8 µM); MIC [21]: 0.2 µg/mL (≈ 0.279 µM)
2 | CC[C@H]1OC(=O)[C@H](C)[C@@H](O[C@H]2C[C@@](C)(OC)[C@H](O)[C@H](C)O2)[C@H](C)[C@@H](O[C@@H]2O[C@H](C)C[C@H](N(C)C)[C@H]2O)[C@](C)(O)C[C@@H](C)[C@@H]2O[C@@]1(C)C(=O)[C@H]2C [Example 21, (4"R,9S)-9-Deoxo-11,12-dideoxy-9,12-epoxy-11-oxoerythromycin A] | > 100 | 0.01 (≈ 0.014 µM) | 0.1 (≈ 0.14 µM) | 0.39 (≈ 0.545 µM) | 0.2 (≈ 0.279 µM) | 0.39 (≈ 0.545 µM) | 1.56 (≈ 2.18 µM) | 12.5 (≈ 17.5 µM) | > 100 | 0.2 (≈ 0.279 µM) | 0.2 (≈ 0.279 µM) | ≤ 0.005 | 1.56 (≈ 2.18 µM) | 0.1 (≈ 0.14 µM) | 3.1 (≈ 4.33 µM) | > 100 | 0.2 (≈ 0.279 µM) | 0.2 (≈ 0.279 µM) | 1.56 (≈ 2.18 µM) | 1.56 (≈ 2.18 µM) | MIC ([11]; read-out: MIC): 0.01 µg/mL (≈ 0.014 µM); MIC ([12]; ATCC4698, BHI agar, read-out: MIC): 0.05 µg/mL (≈ 0.0698 µM); MIC ([13]; ATCC13048, 24 h): 6.2 µg/mL (≈ 8.66 µM); MIC [18]: 0.01 µg/mL (≈ 0.014 µM); MIC (Escherichia coli H560): 0.78 µg/mL (≈ 1.09 µM); MIC [19]: 0.05 µg/mL (≈ 0.0698 µM); MIC [20]: 100 µg/mL (≈ 140 µM); MIC [21]: 0.2 µg/mL (≈ 0.279 µM)
